Patent US4087421A, “Substituted benzodiazepines and method of use” (American Cyanamid Company, priority 1977, dated 1978)

Experiments:
Type in all cases: in vivo
[1] = Inhibition of tetrabenazine induced depression of exploratory behavior in mice; conditions: for Number Responded/Number Treated: intraperitoneally or orally, 1 h before tetrabenazine 30 mg/kg; for ED50: Mus musculus, calculated by method of Finney, dose column in mg/kg, read-out: ED50 (95% C.L.)
Description: Varying doses of the test compounds are administered intraperitoneally or orally to 5 mice one hour before the administration of tetrabenazine hexamate at an intraperitoneal dose of 30 mg/kg which is known to depress markedly the exploratory behavior of normal mice. Thirty minutes later the mice are tested for their exploratoy behavior. Individual mice are placed in the center of a horizontal disc. Inhibition of the depression induced by tetrabenazine is considered present if the mice perform one or more of the following actions within 10 seconds after being placed on the disc:
(1) Animals move to the edge of the disc and pear over the side.
(2) Animals move 180° in place.
(3) Animals display a head movement of 90° immediately followed by a head movement in the opposite direction of at least 45°.
Administration of the test compounds to additional groups of 5 mice is repeated, the numbers of individual animals showing an anti-depressant response (normal exploratory behavior) is recorded and the results are analyzed by the following scheme (statistically standardized; significant P = less than 0.05).
The results from several dose levels (acceptance in at least two sequential test procedures) are then used to establish the Range of Active Doses.

[2] = Prevention of reserpine-induced hypothermia in rats; conditions: for ED50: Rattus norvegicus, oral, dose column in mg/kg, read-out: ED50 (95% C.L.)
Description: Groups of 5 rats were treated orally with graded doses of the test compounds. One hour later the animals were treated with reserpine (solubilized in propylene glycol and citric acid) at a dose of 5 mg/kg intraperitoneally. Rectal temperatures were measured using a YSI Telethermometer. Temperatures were recorded just prior to treatment, one hour later just prior to reserpine administration and at hourly intervals following reserpine administration for 5 hours. […]

[3] = Enhancement of yohimbine lethality in mice; conditions: 25 mg/kg intraperitoneal, yohimbine 34 mg/kg
Description: The test compounds were administered intraperitoneally, at various dose levels, to groups of 10 mice. One hour later all mice received yohimbine at a dose (34 mg/kg) estimated to have a lethal effect in 4% of the mice. Deaths were recorded 18 to 24 hours later.

CN1c2ccccc2N=C(N2CCNCC2)c2cscc21 [4-Methyl-10-(1-piperazinyl)-4H-thieno[3,4-b][1,5]benzodiazepine]
Number Responded/Number Treated ([1]; 1.56 mg/kg): 5/30
Number Responded/Number Treated ([1]; 3.13 mg/kg): 10/30
Number Responded/Number Treated ([1]; 6.25 mg/kg): 9/20
Number Responded/Number Treated ([1]; 12.5 mg/kg): 11/20
Number Responded/Number Treated ([1]; 25.0 mg/kg): 10/20
ED50 [1]: 13 mg/kg

CN(C)CCCN1c2ccccc2CCc2ccccc21 [Imipramine, reference compound]
Number Responded/Number Treated ([1]; 0.78 mg/kg): 1/10
Number Responded/Number Treated ([1]; 1.56 mg/kg): 2/10
Number Responded/Number Treated ([1]; 3.13 mg/kg): 4/10
Number Responded/Number Treated ([1]; 6.25 mg/kg): 7/10
Number Responded/Number Treated ([1]; 12.5 mg/kg): 7/10
Number Responded/Number Treated ([1]; 25.0 mg/kg): 9/10
ED50 [1]: 4.4 mg/kg
Percent of Animals Showing > Two Standard Deviations in Rectal Temperature Over Control Means ([2]; 0.20 mg/kg oral, 2 hours after reserpine): 0%
Percent of Animals Showing > Two Standard Deviations in Rectal Temperature Over Control Means ([2]; 0.20 mg/kg oral, 3 hours after reserpine): 0%
Percent of Animals Showing > Two Standard Deviations in Rectal Temperature Over Control Means ([2]; 0.20 mg/kg oral, 4 hours after reserpine): 0%
Percent of Animals Showing > Two Standard Deviations in Rectal Temperature Over Control Means ([2]; 0.20 mg/kg oral, 5 hours after reserpine): 0%
Percent of Animals Showing > Two Standard Deviations in Rectal Temperature Over Control Means ([2]; 0.39 mg/kg oral, 2 hours after reserpine): 0%
Percent of Animals Showing > Two Standard Deviations in Rectal Temperature Over Control Means ([2]; 0.39 mg/kg oral, 3 hours after reserpine): 10%
Percent of Animals Showing > Two Standard Deviations in Rectal Temperature Over Control Means ([2]; 0.39 mg/kg oral, 4 hours after reserpine): 0%
Percent of Animals Showing > Two Standard Deviations in Rectal Temperature Over Control Means ([2]; 0.39 mg/kg oral, 5 hours after reserpine): 0%
Percent of Animals Showing > Two Standard Deviations in Rectal Temperature Over Control Means ([2]; 0.78 mg/kg oral, 2 hours after reserpine): 21%
Percent of Animals Showing > Two Standard Deviations in Rectal Temperature Over Control Means ([2]; 0.78 mg/kg oral, 3 hours after reserpine): 0%
Percent of Animals Showing > Two Standard Deviations in Rectal Temperature Over Control Means ([2]; 0.78 mg/kg oral, 4 hours after reserpine): 0%
Percent of Animals Showing > Two Standard Deviations in Rectal Temperature Over Control Means ([2]; 0.78 mg/kg oral, 5 hours after reserpine): 7%
Percent of Animals Showing > Two Standard Deviations in Rectal Temperature Over Control Means ([2]; 1.56 mg/kg oral, 2 hours after reserpine): 40%
Percent of Animals Showing > Two Standard Deviations in Rectal Temperature Over Control Means ([2]; 1.56 mg/kg oral, 3 hours after reserpine): 20%
Percent of Animals Showing > Two Standard Deviations in Rectal Temperature Over Control Means ([2]; 1.56 mg/kg oral, 4 hours after reserpine): 20%
Percent of Animals Showing > Two Standard Deviations in Rectal Temperature Over Control Means ([2]; 1.56 mg/kg oral, 5 hours after reserpine): 40%
Percent of Animals Showing > Two Standard Deviations in Rectal Temperature Over Control Means ([2]; 3.13 mg/kg oral, 2 hours after reserpine): 100%
Percent of Animals Showing > Two Standard Deviations in Rectal Temperature Over Control Means ([2]; 3.13 mg/kg oral, 3 hours after reserpine): 90%
Percent of Animals Showing > Two Standard Deviations in Rectal Temperature Over Control Means ([2]; 3.13 mg/kg oral, 4 hours after reserpine): 80%
Percent of Animals Showing > Two Standard Deviations in Rectal Temperature Over Control Means ([2]; 3.13 mg/kg oral, 5 hours after reserpine): 100%
Percent of Animals Showing > Two Standard Deviations in Rectal Temperature Over Control Means ([2]; 6.25 mg/kg oral, 2 hours after reserpine): 100%
Percent of Animals Showing > Two Standard Deviations in Rectal Temperature Over Control Means ([2]; 6.25 mg/kg oral, 3 hours after reserpine): 100%
Percent of Animals Showing > Two Standard Deviations in Rectal Temperature Over Control Means ([2]; 6.25 mg/kg oral, 4 hours after reserpine): 100%
Percent of Animals Showing > Two Standard Deviations in Rectal Temperature Over Control Means ([2]; 6.25 mg/kg oral, 5 hours after reserpine): 100%
Percent of Animals Showing > Two Standard Deviations in Rectal Temperature Over Control Means ([2]; 12.5 mg/kg oral, 2 hours after reserpine): 100%
Percent of Animals Showing > Two Standard Deviations in Rectal Temperature Over Control Means ([2]; 12.5 mg/kg oral, 3 hours after reserpine): 80%
Percent of Animals Showing > Two Standard Deviations in Rectal Temperature Over Control Means ([2]; 12.5 mg/kg oral, 4 hours after reserpine): 100%
Percent of Animals Showing > Two Standard Deviations in Rectal Temperature Over Control Means ([2]; 12.5 mg/kg oral, 5 hours after reserpine): 100%
ED50 ([2]; 2 hours after reserpine): 1.2 mg/kg
ED50 ([2]; 3 hours after reserpine): 2.2 mg/kg
ED50 ([2]; 4 hours after reserpine): 2.2 mg/kg
ED50 ([2]; 5 hours after reserpine): 1.3 mg/kg

CCN1c2ccccc2N=C(N2CCN(C)CC2)c2cscc21 [4-Ethyl-10-(4-methyl-1-piperazinyl)-4H-thieno[3,4-b][1,5]benzodiazepine]
Number Responded/Number Treated ([1]; 3.13 mg/kg): 3/15
Number Responded/Number Treated ([1]; 6.25 mg/kg): 10/30
Number Responded/Number Treated ([1]; 12.5 mg/kg): 9/25
Number Responded/Number Treated ([1]; 25.0 mg/kg): 9/20
ED50 [1]: ~37 mg/kg
Percent of Animals Showing > Two Standard Deviations in Rectal Temperature Over Control Means ([2]; 5 mg/kg oral, 2 hours after reserpine): 0%
Percent of Animals Showing > Two Standard Deviations in Rectal Temperature Over Control Means ([2]; 5 mg/kg oral, 3 hours after reserpine): 0%
Percent of Animals Showing > Two Standard Deviations in Rectal Temperature Over Control Means ([2]; 5 mg/kg oral, 4 hours after reserpine): 0%
Percent of Animals Showing > Two Standard Deviations in Rectal Temperature Over Control Means ([2]; 5 mg/kg oral, 5 hours after reserpine): 0%
Percent of Animals Showing > Two Standard Deviations in Rectal Temperature Over Control Means ([2]; 10 mg/kg oral, 2 hours after reserpine): 60%
Percent of Animals Showing > Two Standard Deviations in Rectal Temperature Over Control Means ([2]; 10 mg/kg oral, 3 hours after reserpine): 100%
Percent of Animals Showing > Two Standard Deviations in Rectal Temperature Over Control Means ([2]; 10 mg/kg oral, 4 hours after reserpine): 60%
Percent of Animals Showing > Two Standard Deviations in Rectal Temperature Over Control Means ([2]; 10 mg/kg oral, 5 hours after reserpine): 20%
Percent of Animals Showing > Two Standard Deviations in Rectal Temperature Over Control Means ([2]; 20 mg/kg oral, 2 hours after reserpine): 80%
Percent of Animals Showing > Two Standard Deviations in Rectal Temperature Over Control Means ([2]; 20 mg/kg oral, 3 hours after reserpine): 80%
Percent of Animals Showing > Two Standard Deviations in Rectal Temperature Over Control Means ([2]; 20 mg/kg oral, 4 hours after reserpine): 100%
Percent of Animals Showing > Two Standard Deviations in Rectal Temperature Over Control Means ([2]; 20 mg/kg oral, 5 hours after reserpine): 60%
ED50 ([2]; 2 hours after reserpine): 11.6 mg/kg
ED50 ([2]; 3 hours after reserpine): 8.7 mg/kg
ED50 ([2]; 4 hours after reserpine): 9.7 mg/kg
ED50 ([2]; 5 hours after reserpine): 16.9 mg/kg
Number Dead/Number Treated ([3]; 18 hours): 7/10
Number Dead/Number Treated ([3]; 24 hours): 8/10
